Consider six compounds from patent US20080221103A1, “New heterocyclic compounds” (ORCHID RESEARCH LABORATORIES LTD., priority 2007, published 2008).

The inhibition is the share of the control response that was lost under treatment. As usually defined, the GI50 is the concentration giving 50% growth inhibition. Lower therefore signals more potent growth inhibition. For orientation: ED50 means the midpoint of the dose-response relation. The low end stands for an effect at a small dose, the high end for a need for a large dose.

In assay [1] the test system is TNF-α. Nature of the assay: In vitro measurement of TNF-α production in LPS-stimulated human PBMC (ELISA). Format: cell-based. The settings on record: LPS 1 μg/ml, 18 h; for inhibition at 1 µM: read-out: TNF-α Inhibition (%) at Conc. (1 μM); for inhibition at 10 µM: read-out: TNF-α Inhibition (%) at Conc. (10 μM). On the procedure: This assay determines the effect of test compounds on the production of TNF-α in human Peripheral Blood Mononuclear Cells (PBMC). Compounds were tested for their ability to inhibit the activity of TNF-α in human PBMC. PBMC were isolated from blood (of healthy volunteers) using BD Vacutainer CPT™ (Cell preparation tube, BD Bio Science) and suspended in RPMI medium (Physiol. Res. 52: 593-598, 2003). The test compounds were pre-incubated with PBMC (0.5 million/incubation well) for 15 min. at 37° C. and then stimulated with Lipopolysaccharide (Escherichia coli: B4; 1 μg/ml) for 18 h at 37° C. in 5% CO2. The levels of TNF-α in the cell culture medium were estimated using enzyme-linked immunosorbent assay performed in a 96 well format as per the procedure of the manufacturer (Cayman Chemical, Ann Arbor, USA).

For the next assay, the system named is NCIH460 cells. Kind of assay: Anti-cancer screen (MTT), NCIH460. The format is cell-based. The note with it: Homo sapiens, NCI-H460, 48 h, concentrations tested 0.01-100 μM. On the procedure:
(§1) Experimental drugs are screened for anti-cancer activity in three cell lines for their GI50, TGI and LC50 values (using 5 concentrations for each compound). The cell lines are maintained in DMEM containing 10% fetal bovine serum. 96 well microtiter plates are inoculated with cells in 100 μL for 24 hours at 37° C., 5% CO2, 95% air and 100% relative humidity. 5000 HCT116 cells/well, 5000 NCIH460 cells/well, 10000 U251 cells/well and 5000 MDAMB231 cells/well are plated. A separate plate with these cell lines is also inoculated to determine cell viability before the addition of the compounds (T0).
(§2) Following 24-h incubation, experimental drugs are added to the 96 well plates. […]
(§3) Cells are incubated with compounds for 48 h followed by the addition of 10 μL 3-(4,5-Dimethyl-2-thiazolyl)-2,5-diphenyl-2H-tetrazolium (MTT) solution per well and a subsequent incubation at 37° C., 5% CO2, 95% air and 100% relative humidity, protected from light. […] Plates are agitated to ensure solution of the formazan crystals in DMSO and absorbance read at 570 nm.
(§4) Percent growth is calculated for each compound's concentration relative to the control and zero measurement wells (T0; viability right before compound addition). […]

Another assay concerns HCT116 cells. Nature of the assay: Anti-cancer screen (MTT), HCT116. The format is cell-based. The note with it: Homo sapiens, HCT-116, 48 h, concentrations tested 0.01-100 μM. On the procedure:
as §1, §2, §3, §4

For another assay, the system named is U251 cells. Kind of assay: Anti-cancer screen (MTT), U251. The format is cell-based. The settings on record: Homo sapiens, U-251, 48 h, concentrations tested 0.01-100 μM. On the procedure: as §1, §2, §3, §4
The test system of another assay is NCIH460, HCT116, U251. Kind of assay: Anti-cancer screen (MTT), mean over three cell lines. The format is cell-based. The note with it: mean of NCIH460, HCT116, U251. On the procedure:
as §1, §2, §3, §4

Assay [2] relates to TNF-α. Kind of assay: LPS induced sepsis for measurement of TNF-α inhibition in mice. Format: in vivo. The note with it: Mus musculus, 1.5 h; oral dosing; serum TNF-α 90 min after LPS i.p. On the procedure:
The LPS induced sepsis model in mice was performed as described by Les sekut et al (J Lab Clin Med, 1994, 124, 813-820). Female Swiss albino mice were selected and the body weights were equivalent within each group. The mice were fasted for 20 h with free access to water. The mice were dosed orally with the test compound suspended in vehicle containing 0.5% Tween 80 in 0.25% Carboxy-methylcellulose sodium salt. The control mice were administered the vehicle alone. After 30 minutes of oral dosing, mice were injected with 500 μg of Lipopolysaccharide (Escherichia coli, LPS: B4 from Siga) in phosphate buffer saline solution into the intraperitoneal cavity of the mice. After 90 min of LPS administration mice were bled via retro-orbital sinus puncture. Blood samples were stored overnight at 4° C. Serum samples were collected by centrifuging the samples at 4000 rpm for 15 minutes at 4° C. Immediately the serum samples were analysed for TNF-α levels using commercially available mouse TNF-α ELISA kit (Amersham Biosciences) and assay was performed by the manufacturer instruction.

Another assay deals with DSS Induced colitis. Kind of assay: IBD-DSS model (DSS induced colitis test). The format is in vivo. The note with it: dosed Day 1 to 6, BALB/c mice, DSS 2%. On the procedure:
DSS Induced colitis test was performed as described by Axelsson et al., 1998. Male BALB/c mice were selected in the age of 7-8 weeks for the study. Colitis in mice was induced by providing DSS (2%) in the drinking water from day 1 to 6. Mice were dosed from Day 1 to 6 with test compound suspended in vehicle containing 0.25% carboxymethylcellulose and 0.5% Tween 80. The control animals received vehicle alone. Body weight and disease activity index was recorded daily during the experiment. After 6 days of treatment, animals were sacrificed; colon weight and colon length was recorded.

The subject of another assay is PDE4. Nature of the assay: PDE4 activity. The note with it: source human U937 cells. The format is biochemical. On the procedure: PDE4 inhibition was measured by following a literature assay procedure (Cortizo J et al., J. Pharmacol., 1993, 108, 562-568). The assay method involves the following conditions.
Pre-Incubation Time/Temperature: 15 min at 25° C.
Incubation Time/Temperature. 20 min at 25° C.
Incubation buffer: 50 mM Tris-HCl, pH 7.5, 5 mM MgCl2 Quantitation method: Quantitation of [^3H]

The next assay has as its target T1, 5-LOX (Homo sapiens, UniProt P09917).
T1 construct: Source: Human PBML cells Substrate: Arachidonic acid; endogenous in cells; host or cells: Human PBML cells (peripheral blood mononuclear leukocytes)
T1 sequence (P09917 1-674): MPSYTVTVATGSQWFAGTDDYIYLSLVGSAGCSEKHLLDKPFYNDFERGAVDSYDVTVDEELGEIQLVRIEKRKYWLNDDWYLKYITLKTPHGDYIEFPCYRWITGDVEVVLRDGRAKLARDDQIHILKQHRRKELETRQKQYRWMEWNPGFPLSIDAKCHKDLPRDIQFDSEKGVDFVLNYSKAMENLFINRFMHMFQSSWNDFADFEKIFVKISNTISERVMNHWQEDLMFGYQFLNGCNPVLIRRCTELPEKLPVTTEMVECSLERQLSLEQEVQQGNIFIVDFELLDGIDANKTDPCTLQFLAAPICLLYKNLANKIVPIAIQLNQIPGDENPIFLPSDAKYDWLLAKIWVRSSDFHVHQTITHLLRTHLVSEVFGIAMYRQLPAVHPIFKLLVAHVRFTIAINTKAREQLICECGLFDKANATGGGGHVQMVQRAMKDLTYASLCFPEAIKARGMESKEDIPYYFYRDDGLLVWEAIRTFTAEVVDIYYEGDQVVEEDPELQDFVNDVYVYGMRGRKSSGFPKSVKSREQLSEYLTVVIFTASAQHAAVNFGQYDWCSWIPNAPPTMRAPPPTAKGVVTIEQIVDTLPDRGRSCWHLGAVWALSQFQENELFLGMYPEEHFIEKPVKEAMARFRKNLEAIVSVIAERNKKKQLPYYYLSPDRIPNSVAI
Kind of assay: 5-LOX activity. Format: biochemical. The settings on record: source human PBML cells, LTB4 EIA. On the procedure: The assay method involves the following conditions. Source: Human PBML cells Substrate: Arachidonic acid
Pre-incubation Time/Temp.: 15 min at 37° C.
Incubation Time/Temp.: 15 min at 37° C.
Incubation buffer: HBSS (Hank's balanced salt solution) Quantitation method: EIA quantitation of LTB4 Significance criteria: >50% of maximum stimulation or inhibition The results are tabulated as shown in the table V.

For a further assay, the target named is T2, Thromboxane synthase (Homo sapiens, UniProt P24557).
T2 construct: Source: Human Platelets; from tissue; host or cells: Human platelets
T2 sequence (P24557 1-533): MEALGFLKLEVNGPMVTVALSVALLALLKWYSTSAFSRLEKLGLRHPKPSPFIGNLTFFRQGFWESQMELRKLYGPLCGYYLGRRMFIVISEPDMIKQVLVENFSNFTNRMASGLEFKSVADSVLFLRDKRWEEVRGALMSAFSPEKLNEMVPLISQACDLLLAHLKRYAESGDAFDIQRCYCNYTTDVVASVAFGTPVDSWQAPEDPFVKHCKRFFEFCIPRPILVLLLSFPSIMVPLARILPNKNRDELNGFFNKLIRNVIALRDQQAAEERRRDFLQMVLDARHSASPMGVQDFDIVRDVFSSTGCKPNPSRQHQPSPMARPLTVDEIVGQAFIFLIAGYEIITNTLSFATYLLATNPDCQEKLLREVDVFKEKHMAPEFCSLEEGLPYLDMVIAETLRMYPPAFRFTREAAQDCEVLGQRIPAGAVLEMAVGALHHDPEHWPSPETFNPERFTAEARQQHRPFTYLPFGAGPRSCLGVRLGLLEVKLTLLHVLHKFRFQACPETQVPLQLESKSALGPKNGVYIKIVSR
Kind of assay: Thromboxane synthase activity. Format: biochemical. The settings on record: source human platelets, TxB2 EIA. On the procedure:
The assay method involves the following conditions.
Pre-incubation Time/Temp.: 15 min at 25° C.
Incubation Time/Temp.: 3 min at 25° C.
Incubation buffer: 10 mM Tris-HCl, pH 7.4 Quantitation method: EIA quantitation of TxB2 Significance criteria: >50% of maximum stimulation or inhibition The results are tabulated as shown in the table VI.

`CSc1nc(-c2cccc(S(N)(=O)=O)c2)nc(NN2C(=O)C=C(C)C2=O)c1C#N` [Example 10, 3-(5-Cyano-4-(3-methyl-2,5-dioxo-2,5-dihydro-1H-pyrrol-1-ylamino)-6-(methylthio)pyrimidin-2-yl)benzenesulfonamide]: in the assay on TNF-α [1], the inhibition at 1 µM turned out to be 20% and the inhibition at 10 µM was 9.7%.
Regarding `COc1ccc(-c2nc(NN3C(=O)C=C(C)C3=O)c(C#N)c(SC)n2)cc1` [Example 2, 4-(Thiomethyl)-2-(4-methoxyphenyl)-6-(3-methyl-2,5-dioxo-2,5-dihydro-1H-pyrrol-1-ylamino)pyrimidine-5-carbonitrile], in the assay on TNF-α [1], the inhibition at 1 µM is 50.9% and the inhibition at 10 µM is 95.4%.
For `COc1ccc(-c2nc(SC)c(C#N)c(N3CCN(c4ccccn4)CC3)n2)cc1` [Example 39, 2-(4-Methoxyphenyl)-4-(methylthio)-6-(4-(pyridin-2-yl)piperazin-1-yl)pyrimidine-5-carbonitrile], in the assay on TNF-α [1], the inhibition at 1 µM is 19.2% and the inhibition at 10 µM came out at 34%.
For the compound `COc1ccc(-c2nc(NN3C(=O)C=C(C)C3=O)c(C#N)c(SC)n2)cc1S(N)(=O)=O` [Example 6, 5-(5-Cyano-4-(3-methyl-2,5-dioxo-2,5-dihydro-1H-pyrrol-1-ylamino)-6-(methylthio)pyrimidin-2-yl)-2-methoxybenzenesulfonamide], the inhibition at 10 µM with TNF-α [1] was 88%. For the same compound, the GI50 was 10.1 µM in the assay with NCIH460 cells; 4.9 µM in the assay with HCT116 cells; 0.92 µM in the assay on U251 cells; 5.3 µM in the assay on NCIH460, HCT116, U251.
As for `CSc1nc(-c2ccccc2)nc(NN2C(=O)C=C(C)C2=O)c1C#N` [Example 1, 4-(3-Methyl-2,5-dioxo-2,5-dihydro-1H-pyrrol-1-ylamino)-6-(methylthio)-2-phenylpyrimidine-5-carbonitrile], in the assay on TNF-α [1], the inhibition at 1 µM was determined as 57.3%. For the same compound, the inhibition at 10 µM came out at 92.7% in the assay on TNF-α [1], 94% against 5-LOX and 96% at Thromboxane synthase. In addition, in the assay on TNF-α [2], it took a dose of 3.1 mg/kg to reach the 50% effect level (ED50). In addition, the “IBD-DSS Model % Inhibition of DAI at 50 mg/kg” value with DSS Induced colitis is reported as 47%. In the assay on PDE4, the “PDE4 inhibition at 10 μM (%)” value is recorded as 61%.
Turning to `CSc1nc(-c2cccs2)nc(NN)c1C#N` [Example 13, 4-Hydrazinyl-6-(methylthio)-2-(thiophen-2-yl)pyrimidine-5-carbonitrile], in the assay on TNF-α [1], the inhibition at 1 µM is 13% and the inhibition at 10 µM amounted to 71%.
